Measured values: patent publication US20110021505A1, “Use of sulfonyl-substituted 2-sulfonylaminobenzoic acid N-phenylamides in the treatment of pain” (SANOFI-AVENTIS DEUTSCHLAND GMBH, priority 2007, published 2011)

melting point [°C] | Compound
214 | COc1cc(NS(=O)(=O)c2ccc(Cl)s2)c(C(=O)Nc2ccc(S(=O)(=O)N(C)Cc3cccnc3)cc2)cc1OC.Cl
246 | O=C(Nc1ccc(S(=O)(=O)N2CCSCC2)cc1)c1cc(Cl)ccc1NS(=O)(=O)c1ccc(Cl)cc1 [Example 15, 5-Chloro-2-(4-chloro-phenylsulfonylamino)-N-(4-(thiomorpholine-4-sulfonyl)-phenyl)-benzamide]
214 | Cc1ccc(S(=O)(=O)Nc2ccc(Cl)cc2C(=O)Nc2ccc(S(=O)(=O)N3CCOCC3)cc2)cc1 [Example 57, 5-Chloro-N-(4-(morpholine-4-sulfonyl)-phenyl)-2-(4-methyl-phenylsulfonylamino)-benzamide]
182 | O=C(Nc1ccc(S(=O)(=O)N2CCS(=O)(=O)CC2)cc1)c1cc(Cl)ccc1NS(=O)(=O)c1ccc(Cl)cc1 [Example 92, 5-Chloro-2-(4-chloro-phenylsulfonylamino)-N-(4-(1,1-dioxo-thiomorpholine-4-sulfonyl)-phenyl)-benzamide]
